As a reminder, the solubility is the dissolved amount per volume that the medium holds. Read a high solubility as much dissolved substance. Usually IC50 stands for the concentration that inhibits the measured activity by half.

Data on 14 molecules can be found in ChEMBL document CHEMBL1155996, “Improving potency and selectivity of a new class of non-Zn-chelating MMP-13 inhibitors” (Bioorg Med Chem Lett, 2009).

Series [1] is described as follows: Solubility of compound at pH 4.5 by high throughput screening. It counts as physicochemical. Particulars: buffer.
The nature of series [2]: Solubility of compound at pH 7.4 by high throughput screening. Conditions: buffer. Type of series: physicochemical.
Another series addresses Collagenase 3 (Homo sapiens, UniProt P45452). Nature of the series: Inhibition of human MMP13 by FRET assay.

In brackets after ≈: the same amount, converted by molar mass.

On to `CNC(=O)[C@@H](NC(=O)c1ccc(-c2ccc(S(=O)(=O)NC)cc2)o1)C1CCCCC1`, for which the figures for the solubility in series [1] and in series [2] were 50 µg/mL (≈ 115 µM) and 52 µg/mL (≈ 120 µM), respectively.

On to `CNC(=O)[C@@H](NC(=O)c1ccc(-c2ccc(OC)cc2)o1)C1CCCCC1`, for which the solubility in series [1] was found to be 1.4 µg/mL (≈ 3.78 µM); in series [2], 1.6 µg/mL (≈ 4.32 µM).

Consider `CNC(=O)[C@@H](NC(=O)c1ccc(-c2ccc(Cl)cn2)o1)C1CCCCC1`, for which the solubility in series [1] came to 35 µg/mL (≈ 93.1 µM); in series [2], 37 µg/mL (≈ 98.4 µM).

Take `CNC(=O)[C@@H](NC(=O)c1ccc(-c2ccc(OCc3ccn[nH]3)cn2)o1)C1CCCCC1`: the solubility in series [1] amounted to 39 µg/mL (≈ 89.1 µM); in series [2], 43 µg/mL (≈ 98.3 µM).

Take `CNC(=O)[C@@H](NC(=O)c1ccc(-c2ccc(NS(C)(=O)=O)cc2)o1)C1CCCCC1`: the solubility in series [1] is 53 µg/mL (≈ 122 µM); in series [2] it was 61 µg/mL (≈ 141 µM).

For the molecule `CNC(=O)[C@@H](NC(=O)c1ccc(-c2ccc(OCc3cc(C)n[nH]3)cn2)o1)C1CCCCC1`, the figures for the solubility in series [1] and in series [2] were 25 µg/mL (≈ 55.4 µM) and 31 µg/mL (≈ 68.7 µM), respectively.

In the case of `CNC(=O)[C@@H](NC(=O)c1ccc(-c2ccc(Oc3ccccc3)cc2)o1)C1CCCCC1`, the concentration for half-maximal inhibition (IC50) against Collagenase 3 is > 50 µM.

Turning to `CNC(=O)[C@@H](NC(=O)c1ccc(-c2ccc(Cl)cc2)o1)C1CCCCC1`, the solubility was 1.5 µg/mL (≈ 4 µM) in series [1] and 1.9 µg/mL (≈ 5.07 µM) in series [2].

As for `CNC(=O)c1ccc(-c2ccc(C(=O)N[C@H](C(=O)NC)C3CCCCC3)o2)cc1`, the values for the solubility in series [1] and in series [2] were 16 µg/mL (≈ 40.3 µM) and 17 µg/mL (≈ 42.8 µM), respectively. This molecule also gave an IC50 at Collagenase 3 of 6 µM.

`CNC(=O)[C@@H](NC(=O)c1ccc(-c2ccc(OCc3cc(C)n(C)n3)cn2)o1)C1CCCCC1`: the solubility in series [1] and in series [2] was > 57 µg/mL each time.

On to `CCOc1ccc(-c2ccc(C(=O)N[C@H](C(=O)NC)C3CCCCC3)o2)nc1`, for which the solubility in series [1] is 33 µg/mL (≈ 85.6 µM); in series [2], > 49 µg/mL.

`CNC(=O)[C@@H](NC(=O)c1ccc(-c2ccc(NC(C)=O)cc2)o1)C1CCCCC1`: the values for the solubility in series [1] and in series [2] were 15 µg/mL (≈ 37.7 µM) and 17 µg/mL (≈ 42.8 µM), respectively. Further, the IC50 on Collagenase 3 is 1.55 µM.

As for `CNC(=O)[C@@H](NC(=O)c1ccc(-c2ccc(OCc3cc4ccccc4o3)cn2)o1)C1CCCCC1`, the solubility in series [1] was < 0.1 µg/mL; in series [2], 0.1 µg/mL (≈ 0.205 µM).

As to `CNC(=O)[C@@H](NC(=O)c1ccc(-c2ccc(OCc3cccc(C)n3)cn2)o1)C1CCCCC1`, the solubility in series [1] turned out to be 7.4 µg/mL (≈ 16 µM); in series [2], 3.4 µg/mL (≈ 7.35 µM).
